{
  "source": "patent US20250073355A1",
  "about": "“CD44-BINDING PEPTIDE REAGENTS AND METHODS” (THE REGENTS OF THE UNIVERSITY OF MICHIGAN, priority 2021, published 2025)",
  "key": {"[1]": {"tested_on": "orthotopic human HCC xenograft tumors (SK-Hep1)", "assay": "Photoacoustic imaging of orthotopic human HCC xenograft tumors", "method": "(§1) Human HCC xenograft tumors were implanted orthotopically in female nude athymic mice. First, ˜5×10^6 SK-Hep1 tumor cells were injected subcutaneously into the hind limb flank. Tumors were then monitored twice a week and allowed to grow to 1-2 cm in diameter for 10-30 days. A small horizontal incision was made below the sternum to expose the liver. The liver was incised with a sharp scalpel horizontally in parallel with the surface of the exposed liver. A piece of the subcutaneous tumor with dimensions of ˜1×1×1 mm^3 was implanted into the incision, and then the site was sealed with absorbable hemostatic material (surgical, Johnson & Johnson). The liver was returned to its original position after confirming hemostasis.\nIRDye800-labeled target and control peptides (300 μM in 200 μL PBS) were intravenously injected in mice bearing orthotopical SK-Hep1 tumors. An unlabeled peptide (1.5 mM, 100 μL) was injected 30 min prior to the labeled peptide to compete for binding. ICG (2.46 mg/kg) was injected intravenously as a control. Three-dimensional (3D) images were acquired from 0 to 48 h post injection and reconstructed using PAI tomography system (Nexus 128, Endra) using Iex=774 nm excitation. The photoacoustic signal intensity was measured from the two-dimensional (2D) maximum intensity projection (MIP) images, and the pre-injection images were used for background.\nThe photoacoustic images were collected to evaluate the time course for peptide uptake, FIG. 14A. […] Indocyanine green (ICG) was also administered (2.46 mg/kg) for comparison."}, "[2]": {"tested_on": "orthotopic human HCC xenograft tumors", "assay": "Intraoperative laparoscopic imaging of orthotopic human HCC xenograft tumors", "assay_type": "in vivo", "details": "[…] post-injection, n=8 mice", "method": "A self-build imaging module was attached to standard surgical laparoscope (#49003 AA, HOPKINS II Straight Forward Telescope 0°, Karl Storz, El Segundo, CA, USA) to collect WL and NIR FL images. WL illumination (MCWHL5, Thorlabs, Newton, NJ, USA) and FL excitation source (λex=785 nm, #iBEAM-SMART-785-S, Toptica Photonics) were coupled into the laparoscope. WL and NIR FL images are collected, simultaneously, by a color CCD camera (#GX-FW-28S5C-C, Point Grey Research, Richmond, BC V6W 1 K7, Canada) and a NIR CCD camera (Orca R-2, Hamamatsu Photonics, Hamamatsu City, Shizuoka Pref., Japan) with a laser power of 1.2 mW, respectively.\nAfter completion of imaging, the mice were euthanized, and the livers were resected. A human specific anti-cytokeratin was stained on tumor sections by IHC to further confirm the implanted human derived HCC tumors, FIG. 16H. Overexpression of CD44 was confirmed by IHC and IF, FIG. 161,J. Representative histology (H&E) of the tumor is shown, FIG. 16K."}, "[3]": {"tested_on": "orthotopic SK-Hep1 xenograft tumors", "assay": "Whole body fluorescence imaging of orthotopic human HCC xenograft tumors", "details": "peak uptake ([…]), intravenous, n=5 mice", "method": "as §1"}},
  "data": [
    {"compound": "CC1(C)C(/C=C/C=C/C=C/C=C2\\N(CCCCS(=O)(=O)O)c3ccc4ccccc4c3C2(C)C)=[N+](CCCCS(=O)(=O)[O-])c2ccc3ccccc3c21", "note": "[ICG, Indocyanine green]", "values": [
      {"measurement": "T/B ratio, photoacoustic imaging (mean±SD)", "setting": "[1]; […] post-injection, intravenous, n=5 mice", "result": "1.39±0.13"},
      {"measurement": "time of peak intensity (uptake) in tumor, photoacoustic", "setting": "[1]; female, nude athymic, mouse, in vivo, iv", "result": "> 24", "unit": "h"},
      {"measurement": "T/B ratio, laparoscopic fluorescence imaging (mean±SD)", "setting": "[2]", "result": "0.87±0.2"},
      {"measurement": "T/B ratio, whole body fluorescence imaging (mean±SD)", "setting": "[3]", "result": "0.46±0.03"}
    ]}
  ]
}
